Assay results taken from patent US20260317340A1, “COMPOUNDS, COMPOSITIONS, AND METHODS OF TREATING DISORDERS” (Chengdu Anticancer Bioscience, Ltd., priority 2023, published 2026).
Where two headings read alike, the source gives them in different places.

Assays:
RPE-Neo or RPE-MYC cells = assay: MTT assay of cellular proliferation (proliferative arrest); type: cell-based; conditions: for minimal effective concentration: read-out: Min. Effective conc. for Proliferative arrest (>50%)
Experimental: (§1) Human cancer cell lines were obtained from ATCC and cultured in DMEM (Gibco, Cleveland, TN, USA) supplemented with 5% fetal bovine serum (Gibco), penicillin (100 U/mL)-streptomycin (100 μg/mL) (Gibco, Cat. No. 15140-122), 2 mM L-glutamine (Gibco, 200 mM solution, Cat. No. 25030081), and 1 mM sodium pyruvate (Gibco, 100 mM solution, Cat. No. 11360070) at 37° C. in a humidified incubator that was maintained at 5% CO2.
Screening was conducted as described before (Li et al. 2019). Briefly, RPE-Neo or RPE-MYC or RPE-MYC expressing an EGFP-Histone 2B fusion protein were passaged as batches of 96-well plates, 18-24 hours before exposure to the chemical compounds of the present disclosure at concentrations from 20 nM to 20 μM. At 24, 48 or 72 hours after initiation of treatment, cells were analyzed for either an arrest in mitosis or a change in DNA content by GE IN-Cell Analyzer 2000. MTT assays of cellular proliferation were performed as previously described (Li et al. 2019). […]
(§2) As set forth in table 2 below, an values of greater than or equal to 1 nM and less than or equal to 1.0 μM is marked “A”; a value greater than 1.00 μM and less than or equal to 10.0 μM is marked “B”; a value greater than 10.0 μM and less than or equal to 30.0 μM is marked “C”; and a value greater than 30.0 μM and less than 1000 μM is marked “D.”

[1] = test system: RPE-Neo or RPE-MYC or RPE-MYC expressing an EGFP-Histone 2B fusion protein; assay: Phenotypic screening assay: arrest in mitosis, change in DNA content (polyploidy), cell death; type: cell-based; conditions: 20 nM to 20 μM, 24, 48 or 72 hours
Experimental: as §1
Screening was conducted as described before (Li et al. 2019). Briefly, RPE-Neo or RPE-MYC or RPE-MYC expressing an EGFP-Histone 2B fusion protein were passaged as batches of 96-well plates, 18-24 hours before exposure to the chemical compounds of the present disclosure at concentrations from 20 nM to 20 μM. At 24, 48 or 72 hours after initiation of treatment, cells were analyzed for either an arrest in mitosis or a change in DNA content by GE IN-Cell Analyzer 2000. MTT assays of cellular proliferation were performed as previously described (Li et al. 2019).
as §2

[2] = read-out: Min. Effective conc. for Along with Cell Death
[3] = ≥5%, read-out: Min. Effective conc. for Mitotic Arrest (≥5%)
[4] = ≥5%, read-out: Min. Effective conc. for Polyploidy (≥5%)

Structure (SMILES) | Min. Effective conc. for Proliferative arrest (>50%) (RPE-Neo or RPE-MYC cells; >50%) | Min. Effective conc. for Along with Cell Death [1] | Min. Effective conc. for Mitotic Arrest (≥5%) ([1]; ≥5%) | Min. Effective conc. for Polyploidy (≥5%) ([1]; ≥5%) | minimal effective concentration (RPE-Neo or RPE-MYC cells) | minimal effective concentration [1, 2] | minimal effective concentration [1, 3] | minimal effective concentration [1, 4]
COc1ccc(CN2C(=O)CC(c3cnco3)=C(Br)c3ccccc32)cc1 [Compound 7, 5-Bromo-1-(4-methoxybenzyl)-4-(oxazol-5-yl)-1,3-dihydro-21-benzo[b]azepin-2-one] | A (greater than or equal to 1 nM and less than or equal to 1.0 μM) | A (greater than or equal to 1 nM and less than or equal to 1.0 μM) | A (greater than or equal to 1 nM and less than or equal to 1.0 μM) | A (greater than or equal to 1 nM and less than or equal to 1.0 μM) | – | – | – | –
COc1ccc(CN2C(=O)CC(c3ncc(C)o3)=Cc3ccc(-c4cnn(C5(CC#N)CN(S(=O)(=O)N(C)C)C5)c4)cc32)cc1 [Compound 91, 3-(Cyanomethyl)-3-(4-(1-(4-methoxybenzyl)-4-(5-methyloxazol-2-yl)-2-oxo-2,3-dihydro-1H-benzo[b]azepin-8-yl)-1H-pyrazol-1-yl)-N,N-dimethylazetidine-1-sulfonamide] | – | – | – | – | 0.001 to 1 µM | 0.001 to 1 µM | 0.001 to 1 µM | 0.001 to 1 µM
COc1ccc(CN2C(=O)CC(c3ncc(C)o3)=Cc3ccc(-c4cnn(C5(C(N)=O)CC5)c4)cc32)cc1 [Compound 92, 1-(4-(1-(4-Methoxybenzyl)-4-(5-methyloxazol-2-yl)-2-oxo-2,3-dihydro-1H-benzo[b]azepin-8-yl)-1H-pyrazol-1-yl)cyclopropane-1-carboxamide] | – | – | – | – | 0.001 to 1 µM | 0.001 to 1 µM | 0.001 to 1 µM | 0.001 to 1 µM
COc1ccc(CN2C(=O)CC(c3nnc(N)s3)=C(Br)c3ccccc32)cc1 [Compound 10, 4-(5-Amino-1,3,4-thiadiazol-2-yl)-5-bromo-1-(4-methoxybenzyl)-1,3-dihydro-2H-benzo[b]azepin-2-one] | – | – | – | – | 0.001 to 1 µM | 0.001 to 1 µM | 0.001 to 1 µM | 0.001 to 1 µM
COc1ccc(CN2C(=O)CC(c3ncc(C)o3)=Cc3ccc(-c4cnn(CC(N)=O)c4)cc32)cc1 [Compound 50, 2-(4-(1-(4-methoxybenzyl)-4-(5-methyloxazol-2-yl)-2-oxo-2,3-dihydro-1H-benzo[b]azepin-8-yl)-1H-pyrazol-1-yl)acetamide] | – | – | – | – | 0.001 to 1 µM | 0.001 to 1 µM | 0.001 to 1 µM | 0.001 to 1 µM
COc1ccc(CN2C(=O)CC(c3ncc(C)o3)=Cc3ccc(-c4cnn(CCN(C)C)c4)cc32)cc1 [Compound 66, 8-(1-(2-(Dimethylamino)ethyl)-1H-pyrazol-4-yl)-1-(4-methoxybenzyl)-4-(5-methyloxazol-2-yl)-1,3-dihydro-2H-benzo[b]azepin-2-one] | – | – | – | – | 0.001 to 1 µM | 0.001 to 1 µM | 0.001 to 1 µM | 0.001 to 1 µM
COc1ccc(CN2C(=O)CC(c3ccon3)=Cc3ccc(-c4cnn(CC(C)(C)O)c4)cc32)cc1 [Compound 97, 8-(1-(2-Hydroxy-2-methylpropyl)-1H-pyrazol-4-yl)-4-(isoxazol-3-yl)-1-(4-methoxybenzyl)-1,3-dihydro-2H-benzo[b]azepin-2-one] | – | – | – | – | 0.001 to 1 µM | 0.001 to 1 µM | 0.001 to 1 µM | 0.001 to 1 µM
COc1ccc(CN2C(=O)CC(c3ncc(C)o3)=Cc3ccc(-c4cnn(C(C)(C)C(N)=O)c4)cc32)cc1 [Compound 76, 2-(4-(1-(4-Methoxybenzyl)-4-(5-methyloxazol-2-yl)-2-oxo-2,3-dihydro-1H-benzo[b]azepin-8-yl)-1H-pyrazol-1-yl)-2-methylpropanamide] | – | – | – | – | 0.001 to 1 µM | 0.001 to 1 µM | 0.001 to 1 µM | 0.001 to 1 µM
COCCOCCn1cc(-c2ccc3c(c2)N(Cc2ccc(OC)cc2)C(=O)CC(c2ncc(C)o2)=C3)cn1 [Compound 78, 1-(4-methoxybenzyl)-8-(1-(2-(2-methoxyethoxy)ethyl)-1H-pyrazol-4-yl)-4-(5-methyloxazol-2-yl)-1,3-dihydro-2H-benzo[b]azepin-2-one] | – | – | – | – | 0.001 to 1 µM | 0.001 to 1 µM | 0.001 to 1 µM | 0.001 to 1 µM
COc1ccc(CN2C(=O)CC(c3ncc(C)o3)=Cc3ccc(-c4cnn(CC(C)(C)O)c4)cc32)cn1 [Compound 103, 8-(1-(2-Hydroxy-2-methylpropyl)-1H-pyrazol-4-yl)-1-((6-methoxypyridin-3-yl)methyl)-4-(5-methyloxazol-2-yl)-1,3-dihydro-2H-benzo[b]azepin-2-one] | – | – | – | – | 0.001 to 1 µM | 0.001 to 1 µM | 0.001 to 1 µM | 0.001 to 1 µM
Cc1cnc(C2=Cc3ccc(-c4cnn(C)c4)cc3N(Cc3ccc(C)c(F)c3)C(=O)C2)o1 [Compound 20, 1-(3-fluoro-4-methylbenzyl)-8-(1-methyl-1H-pyrazol-4-yl)-4-(5-methyloxazol-2-yl)-1,3-dihydro-2H-benzo[b]azepin-2-one] | – | – | – | – | 0.001 to 1 µM | 0.001 to 1 µM | 0.001 to 1 µM | 0.001 to 1 µM
COc1ccc(CN2C(=O)CC(c3ncc(C)o3)=Cc3ccc(O)cc32)cc1 [Compound 27, 8-hydroxy-1-(4-methoxybenzyl)-4-(5-methyloxazol-2-yl)-1,3-dihydro-2H-benzo[b]azepin-2-one] | – | – | – | – | 0.001 to 1 µM | 0.001 to 1 µM | 0.001 to 1 µM | 0.001 to 1 µM
COc1ccc(CN2C(=O)CC(c3ncc(C)o3)=Cc3ccc(-c4cnn(C5(CC#N)CNC5)c4)cc32)cc1 [Compound 85, 2-(3-(4-(1-(4-Methoxybenzyl)-4-(5-methyloxazol-2-yl)-2-oxo-2,3-dihydro-1H-benzo[b]azepin-8-yl)-1H-pyrazol-1-yl)azetidin-3-yl)acetonitrile] | – | – | – | – | 0.001 to 1 µM | 0.001 to 1 µM | 0.001 to 1 µM | 0.001 to 1 µM
COc1ccc(CN2C(=O)CC(c3nnc(C)o3)=Cc3ccc(Br)cc32)cc1 [Compound 15, 8-bromo-1-(4-methoxybenzyl)-4-(5-methyl-1,3,4-oxadiazol-2-yl)-1,3-dihydro-2H-benzo[b]azepin-2-one] | – | – | – | – | 1 to 10 µM | 1 to 10 µM | 1 to 10 µM | 1 to 10 µM
COc1ccc(CN2C(=O)CC(c3ncc(C)o3)=Cc3ccc(-c4cn[nH]c4)cc32)cc1 [Compound 33, 1-(4-methoxybenzyl)-4-(5-methyloxazol-2-yl)-8-(1H-pyrazol-4-yl)-1,3-dihydro-2H-benzo[b]azepin-2-one] | – | – | – | – | 0.001 to 1 µM | 0.001 to 1 µM | 0.001 to 1 µM | 0.001 to 1 µM
COc1ccc(CN2C(=O)CC(c3ncc(C)o3)=Cc3ccc(-c4cnn(C5CNC5)c4)cc32)cc1 [Compound 70, 8-(1-(Azetidin-3-yl)-1H-pyrazol-4-yl)-1-(4-methoxybenzyl)-4-(5-methyloxazol-2-yl)-1,3-dihydro-2H-benzo[b]azepin-2-one] | – | – | – | – | 0.001 to 1 µM | 0.001 to 1 µM | 0.001 to 1 µM | 0.001 to 1 µM
COc1ccc(CN2C(=O)CC3(c4ncc(C)o4)CC3c3ccc(Br)cc32)cc1 (stereo not drawn) [Compound 17, 6-bromo-4-(4-methoxybenzyl)-1a-(5-methyloxazol-2-yl)-1a,2,4,8b-tetrahydrobenzo[b]cyclopropa[d]azepin-3(1H)-one] | – | – | – | – | 1 to 10 µM | 1 to 10 µM | 1 to 10 µM | 1 to 10 µM
CCOC(=O)C(C)n1cc(-c2ccc3c(c2)N(Cc2ccc(OC)cc2)C(=O)CC(c2ncc(C)o2)=C3)cn1 (stereo not drawn) [Compound 74, Ethyl 2-(4-(1-(4-methoxybenzyl)-4-(5-methyloxazol-2-yl)-2-oxo-2,3-dihydro-1H-benzo[b]azepin-8-yl)-1H-pyrazol-1-yl)propanoate] | – | – | – | – | 0.001 to 1 µM | 0.001 to 1 µM | 0.001 to 1 µM | 0.001 to 1 µM
